In brackets after ≈: the same amount, converted by molar mass.
Assays:
[1] = tested on: human embryonic lung (HEL) fibroblast cells; conditions: minimum cytotoxic concentration, microscopic inspection of cell morphology
Reovirus-1 = test: Antiviral CPE reduction assay, Reovirus-1 in VERO cells; format: cell-based
ACV^r-HSV-1 = test: Antiviral CPE reduction assay, ACVr-HSV-1 in HEL cells; format: cell-based
VERO cells = conditions: minimum cytotoxic concentration, microscopic inspection of cell morphology
Sindbis virus = test: Antiviral CPE reduction assay, Sindbis virus in VERO cells; format: cell-based
HSV-1 = test: Antiviral CPE reduction assay, HSV-1 in HEL cells; format: cell-based, Herpes simplex virus-1
HSV-2 = test: Antiviral CPE reduction assay, HSV-2 in HEL cells; format: cell-based, Herpes simplex virus-2
[2] = tested on: Vesicular stomatitis virus; format: cell-based
CRFK feline kidney cells = conditions: MTS cell viability assay
DNA virus = test: Anti-DNA virus activity in HEL cells; format: cell-based
Punto Toro virus = test: Antiviral CPE reduction assay, Punto Toro virus in VERO cells; format: cell-based, Punta toro virus
Vaccinia virus = test: microbe, parasite or virus in culture; format: cell-based
[3] = tested on: Mycobacterium tuberculosis H37Rv; conditions: for H37Rv Finding Activity: M. tuberculosis H37Rv, MABA in BACTEC 12B medium
Coxsackie B4 virus = test: Antiviral CPE reduction assay, Coxsackie B4 virus in VERO cells; format: cell-based
Parainfluenza-3 virus = test: Antiviral CPE reduction assay, Parainfluenza-3 virus in VERO cells; format: cell-based
Feline herpesvirus = test: Antiviral CPE reduction assay, Feline herpesvirus in CRFK cells; format: cell-based; conditions: Felid alphaherpesvirus 1, CRFK, read-out: Antiviral EC50 Feline herpesvirus
Feline coronavirus = test: microbe, parasite or virus in culture; conditions: Alphacoronavirus 1, CRFK, read-out: Antiviral EC50 Feline coronavirus
in vitro [4] = conditions: cat
in vitro [5] = conditions: African green monkey
[6] = tested on: Mycobacterium tuberculosis H37Rv; test: microbe, parasite or virus in culture; conditions: read-out: H37Rv Finding MIC
[7] = VERO cells, CPE by microscopy, mean of two experiments
[8] = HEL cells, CPE by microscopy, mean of two experiments

Q: For `O=C(Cc1csc2nc(-c3ccc(Br)cc3)cn12)NN=C1CCC(c2ccccc2)CC1` (stereo not drawn) [Compound 4c, 6-(4-Bromophenyl)–N^2-(4-phenylcyclohexylidene)imidazo[2,1-b]thiazole-3-acetohydrazide], which “Cytotoxicity MCC” value [1] is on record?
A: ≥100 µg/mL

Q: And the “Antiviral EC50 Reovirus-1” value (Reovirus-1; [7])?
A: >100 µg/mL

Q: And the “Antiviral EC50 ACV^r-HSV-1” value (ACV^r-HSV-1; [8])?
A: ≥45 µg/mL

Q: And the “Cytotoxicity MCC” value (VERO cells)?
A: >100 µg/mL

Q: And the “Antiviral EC50 Sindbis virus” value (Sindbis virus; [7])?
A: >100 µg/mL

Q: And the “Antiviral EC50 HSV-1” value (HSV-1; [8])?
A: 45 µg/mL

Q: And the “Antiviral EC50 HSV-2” value (HSV-2; [8])?
A: ≥45 µg/mL

Q: What about the “Antiviral EC50 Vesicular stomatitis virus” value [2] of the same compound?
A: >100 µg/mL

Q: What about the “Cytotoxicity CC50” value (CRFK feline kidney cells) of the same compound?
A: >100 µg/mL

Q: What about the “antiviral EC50 values, anti-DNA virus activity” value (DNA virus) of the same compound?
A: about 45 µg/mL

Q: What about the “Antiviral EC50 Punto Toro virus” value (Punto Toro virus; [7]) of the same compound?
A: >100 µg/mL

Q: And the “Antiviral EC50 Vaccinia virus” value (Vaccinia virus)?
A: 45 µg/mL

Q: And the “H37Rv Finding MIC” value [3]?
A: >100 µg/mL

Q: What about the “H37Rv Finding Activity” value [3] of the same compound?
A: Weak Active

Q: What about the “Antiviral EC50 Coxsackie B4 virus” value (Coxsackie B4 virus; [7]) of the same compound?
A: >100 µg/mL

Q: What about the “Antiviral EC50 Parainfluenza-3 virus” value (Parainfluenza-3 virus; [7]) of the same compound?
A: >100 µg/mL

Q: What does the source list for `O=C(Cc1csc2nc(-c3ccc(Br)cc3)cn12)NN1C(=O)CSC12CCC(c1ccc(O)cc1)CC2` (stereo not drawn) [Compound 5d, 2-[6-(4-Bromophenyl)imidazo[2,1-b]thiazole-3-yl]-N-(3-oxo-8-(4-hydroxyphenyl)-1-thia-4-azaspiro[4.5]dec-4-yl)acetamide]?
A: Cytotoxicity MCC [1]: 20 µg/mL; EC50 (Reovirus-1; Vero, read-out: Antiviral EC50 Reovirus-1): > 100 µg/mL; EC50 (ACV^r-HSV-1; Human alphaherpesvirus 1, HEL, read-out: Antiviral EC50 ACV^r-HSV-1): > 100 µg/mL; Cytotoxicity MCC (VERO cells): >100 µg/mL; EC50 (Sindbis virus; Sindbis virus, Vero, read-out: Antiviral EC50 Sindbis virus): > 100 µg/mL; EC50 (HSV-1; Human alphaherpesvirus 1, HEL, read-out: Antiviral EC50 HSV-1): > 100 µg/mL; EC50 (Feline herpesvirus): 21 µg/mL (≈ 35.1 µM); EC50 (Feline coronavirus): 4.8 µg/mL (≈ 8.03 µM); EC50 (HSV-2; Human alphaherpesvirus 2, HEL, read-out: Antiviral EC50 HSV-2): > 100 µg/mL; selectivity ratio (in vitro [4]): > 20; EC50 (Punto Toro virus; Punta Toro virus, Vero, read-out: Antiviral EC50 Punto Toro virus): > 100 µg/mL; EC50 (Vaccinia virus; Orthopoxvirus vaccinia, HEL, read-out: Antiviral EC50 Vaccinia virus): > 100 µg/mL; EC50 (Coxsackie B4 virus; Enterovirus B, B4, Vero, read-out: Antiviral EC50 Coxsackie B4 virus): > 100 µg/mL; EC50 (Parainfluenza-3 virus; Vero, read-out: Antiviral EC50 Parainfluenza-3 virus): > 100 µg/mL

Q: For `CO[C@H]1/C=C/O[C@@]2(C)Oc3c(C)c(O)c4c(O)c(c(/C=N/N5CCN(C)CC5)c(O)c4c3C2=O)NC(=O)/C(C)=C\C=C\[C@H](C)[C@H](O)[C@@H](C)[C@@H](O)[C@@H](C)[C@H](OC(C)=O)[C@@H]1C` [Rifampin, reference compound], which CC50 (in vitro [5]) is on record?
A: > 100 µg/mL

Q: What about the MIC [6] of the same compound?
A: 0.125 µg/mL (≈ 0.152 µM)

Q: And the “H37Rv Finding Activity” value [3]?
A: Active

— paper PMC7112121 (Bioorganic Chemistry, 2019)
